What was measured:
Settings in all cases: 72 h
[1] = system: Vero E6; experiment: relative viability EC50 (midpoint between 100% and the lowest measured viability); higher = less toxic
[2] = system: U2OS; experiment: as above
[3] = system: HepG2; experiment: as above
[4] = system: Caco-2; experiment: as above
[5] = system: Vero E6; experiment: drug sensitivity score (DSS) for viability; higher = more toxic; extreme values may be limits of the assay
[6] = system: U2OS; experiment: as above
[7] = system: HepG2; experiment: as above
[8] = system: Caco-2; experiment: as above
[9] = system: Vero E6; experiment: cell viability relative to DMSO; higher = less toxic
[10] = system: U2OS; experiment: as above
[11] = system: HepG2; experiment: as above
[12] = system: Caco-2; experiment: as above
[13] = system: Calu-3; experiment: relative viability EC50 (midpoint between 100% and the lowest measured viability); higher = less toxic
[14] = system: Calu-3; experiment: drug sensitivity score (DSS) for viability; higher = more toxic; extreme values may be limits of the assay
[15] = system: Calu-3; experiment: cell viability relative to DMSO; higher = less toxic

Structure (SMILES)	relative viability EC50 [1] [µM]	relative viability EC50 [2] [µM]	relative viability EC50 [3] [µM]	relative viability EC50 [4] [µM]	drug sensitivity score [5]	drug sensitivity score [6]	drug sensitivity score [7]	drug sensitivity score [8]	cell viability ([9]; 1 nM) [%]	cell viability ([9]; 10 nM) [%]	cell viability ([9]; 100 nM) [%]	cell viability ([9]; 1000 nM) [%]	cell viability ([9]; 10000 nM) [%]	cell viability ([10]; 1 nM) [%]	cell viability ([10]; 10 nM) [%]	cell viability ([10]; 100 nM) [%]	cell viability ([10]; 1000 nM) [%]	cell viability ([10]; 10000 nM) [%]	cell viability ([11]; 1 nM) [%]	cell viability ([11]; 10 nM) [%]	cell viability ([11]; 100 nM) [%]	cell viability ([11]; 1000 nM) [%]	cell viability ([11]; 10000 nM) [%]	cell viability ([12]; 1 nM) [%]	cell viability ([12]; 10 nM) [%]	cell viability ([12]; 100 nM) [%]	cell viability ([12]; 1000 nM) [%]	cell viability ([12]; 10000 nM) [%]	relative viability EC50 [13] [µM]	drug sensitivity score [14]	cell viability ([15]; 1 nM) [%]	cell viability ([15]; 10 nM) [%]	cell viability ([15]; 100 nM) [%]	cell viability ([15]; 1000 nM) [%]	cell viability ([15]; 10000 nM) [%]
CC(C)(C)CC(=O)Nc1c(F)cc(C(=O)/N=c2\sccn2COP(=O)(O)O)cc1F	> 10	> 10	> 10	> 10	0	0	0	0	107	104	102	96.5	94.3	95.8	101	97	98.2	95.5	101	114	94.8	98.9	96.9	97.9	109	99.4	104	92.3	–	–	–	–	–	–	–
CO[C@H]1/C=C/O[C@@]2(C)Oc3c(C)c(O)c4c(O)c(c(/C=N/N5CCN(C)CC5)c(O)c4c3C2=O)NC(=O)/C(C)=C\C=C\[C@H](C)[C@H](O)[C@@H](C)[C@@H](O)[C@@H](C)[C@H](OC(C)=O)[C@@H]1C [rifampin]	–	> 10	> 10	> 10	1.2	0.3	0.1	0	68.7	97.8	70.2	103	64.7	96	105	98.2	97.2	86.9	97.9	102	104	89.4	92.4	88.9	88.7	90.8	88.5	105	> 10	0	99.5	99.6	98.7	99.8	102
CC(=O)c1ccc2c(c1)[C@@H]1C=CC[C@@H]1[C@H](c1cc3c(cc1Br)OCO3)N2 [G-1]	1.57	3.38	3.53	–	5.8	2.5	3.1	2.4	102	93.3	95.8	84.8	37.1	100	98.2	94.3	102	49.7	95.4	88.4	111	105	36.4	96.8	93.4	102	98	58.2	–	–	–	–	–	–	–
CCCNCC(O)COc1ccccc1C(=O)CCc1ccccc1 (stereo unspecified) [propafenone]	–	> 10	> 10	> 10	2.9	0	1	0	106	108	106	92.2	64.9	99.1	93.1	95.6	94.3	92.5	99.3	94	96.4	99.4	75.1	94.7	89.5	98.4	92.8	88.9	> 10	0	105	95.3	103	93.7	99.7
COc1cc(N2CCC(N3CCN(C)CC3)CC2)ccc1Nc1ncc(Cl)c(Nc2ccccc2S(=O)(=O)C(C)C)n1 [NVP-TAE684]	1.81	2.22	0.926	–	4.9	5.7	8.1	4.3	100	97.2	93.5	89.5	42.6	106	97.9	102	91.2	22.9	91.7	96.1	103	63.9	34.2	103	104	101	87.4	53.5	–	3.4	97.2	94.5	90.2	86.6	61.5
Nc1nccc(-c2c(-c3ccc(F)cc3)ncn2C2CCCCC2)n1	> 10	> 10	2.08	–	0.4	0.6	4.3	2.3	105	103	99.2	108	79.8	98.2	102	103	95.5	85	97.8	99.7	100	92.4	43.3	102	96.2	97.3	85.2	74.8	–	3.7	91.1	100	105	87	62.1
Fc1ccc(CNc2ncnc3ccc(F)cc23)cc1 [spautin-1]	> 10	> 10	1.98	–	0.1	0	5.9	2.4	102	96	96.6	89.5	89.1	92.2	97.4	101	95.5	96.7	99.2	102	104	88.8	26.3	99.7	98.9	96	91	69.3	–	2.8	97.3	90.2	100	88.6	70.1
CCC(O)(CC(N)=O)c1ccccc1 (stereo unspecified) [3-hydroxy-3-phenylpentanamide]	–	> 10	> 10	> 10	–	0	0	0	–	–	–	–	–	95	99	98.3	104	99	95.9	93	107	100	98.1	96.1	106	102	100	95.8	> 10	0	98.2	106	89.4	103	108
C#Cc1cncc([C@@H]2CCCN2C)c1 [altinicline]	–	> 10	> 10	> 10	–	0	0	0	–	–	–	–	–	102	91.9	102	97.4	98.9	98.5	96.8	106	105	93.5	101	92.9	102	98.7	97.7	> 10	0	98.3	99	93.9	102	110
Nc1c(Br)cc(Br)cc1CN[C@H]1CC[C@H](O)CC1 [ambroxol]	–	> 10	> 10	> 10	–	0	0	0	–	–	–	–	–	103	99	103	101	101	102	98.5	99.6	103	87.5	100	92.8	98.5	89.4	97.5	> 10	0.2	105	101	102	91.8	88.7
CC(C)n1nccc1-c1ncccc1COc1cccc(O)c1C=O [voxelotor]	–	> 10	> 10	> 10	–	0	0	0.2	–	–	–	–	–	102	97.1	96.5	95.8	94.8	98.1	109	96.9	109	101	101	95.4	96.5	104	84.6	> 10	0	100	92.4	102	98.8	101
O=C(N[C@@H]1CC[C@@H](c2cccc(F)c2F)CN(CC(F)(F)F)C1=O)N1CCC(n2c(=O)[nH]c3ncccc32)CC1 [telcagepant]	–	> 10	> 10	> 10	–	0	0	0.6	–	–	–	–	–	98.5	99.1	104	97	97.6	102	101	96.9	98.8	93.2	104	96	102	90.2	86.7	> 10	0	94.7	98.1	95.7	105	108
Cc1cc(O)cc2c1O[C@](C)(CCC[C@H](C)CCC[C@H](C)CCCC(C)C)CC2 [D-delta-tocopherol]	–	> 10	> 10	> 10	–	0	0	0	–	–	–	–	–	97.7	103	96.9	106	98	114	110	116	103	99.4	102	109	99.8	103	99.1	> 10	0	89.4	96.6	84.8	93.8	79.4
Nc1ncnc2c1c(-c1ccc(Oc3ccccc3)cc1)nn2C1CCCC1	> 10	> 10	> 10	–	0.3	1.1	1	2.3	94.2	100	97.1	90.8	87.1	102	97.3	101	97.4	78.7	89.7	101	92	88.3	82	109	96.7	95.7	93.6	70.1	–	3	105	104	99	95.8	54.5
CN1C(=O)CC(C)(c2ccccc2)C1=O (stereo unspecified) [methsuximide]	> 10	> 10	> 10	> 10	0	0	0	0	96.1	97.1	98.7	96.1	95.2	97.1	101	94	96.6	91.2	98.2	94.4	101	100	104	97.5	102	99.1	105	96.7	–	–	–	–	–	–	–

From the supplement of paper PMC13380429
